The results in this text go back to US8283356B2, “2,4- Di(hetero)-arylamino-pyrimidine derivatives as ZAP-70 and/or SYK inhibitors” (Novartis AG, priority 2003, dated 2012).

One may read the IC50 as the point on the concentration scale where inhibition reaches its midpoint.

For this assay, the target named is T1, ZAP-70 (Homo sapiens, UniProt P43403).
T1 construct: purchased Upstate Biotechnology, Lake Placid, N.Y
T1 sequence (P43403 1-619): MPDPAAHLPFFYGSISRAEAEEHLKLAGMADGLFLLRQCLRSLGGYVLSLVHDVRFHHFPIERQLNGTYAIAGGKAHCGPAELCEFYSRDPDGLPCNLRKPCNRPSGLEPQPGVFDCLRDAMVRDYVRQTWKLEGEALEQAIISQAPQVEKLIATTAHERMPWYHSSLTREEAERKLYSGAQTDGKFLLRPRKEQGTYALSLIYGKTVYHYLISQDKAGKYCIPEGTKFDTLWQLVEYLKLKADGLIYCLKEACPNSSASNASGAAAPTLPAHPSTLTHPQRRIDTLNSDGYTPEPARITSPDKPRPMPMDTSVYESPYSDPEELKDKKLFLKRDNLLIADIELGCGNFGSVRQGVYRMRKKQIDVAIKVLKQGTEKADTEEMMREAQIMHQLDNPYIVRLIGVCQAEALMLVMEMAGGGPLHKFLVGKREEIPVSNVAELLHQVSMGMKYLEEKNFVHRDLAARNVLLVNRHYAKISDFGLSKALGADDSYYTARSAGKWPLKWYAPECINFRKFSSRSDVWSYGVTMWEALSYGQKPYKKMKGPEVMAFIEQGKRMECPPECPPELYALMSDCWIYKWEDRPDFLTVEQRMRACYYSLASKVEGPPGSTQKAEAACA
Nature of the assay: ZAP-70 kinase assay (time-resolved fluorescence resonance energy transfer). Conditions: 80 nM ZAP-70, 4 μM ATP, LAT-11 peptide substrate. Format: biochemical. On the procedure: 1. ZAP-70 Cell-Free Kinase Assays
ZAP-70 and Lck (lymphoid T-cell protein tyrosine kinase) are commercially available from Upstate Biotechnology, Lake Placid, N.Y.
ZAP-70 Kinase assay: The activities of the compounds of invention are determined in a homogenous ZAP-70 kinase assay based on time-resolved fluorescence resonance energy transfer. Briefly, 80 nM ZAP-70 are incubated with 80 nM Lck and 4 μM ATP in ZAP-70 kinase buffer (20 mM Tris, pH 7.5, 10 μM Na3VO4, 1 mM DTT, 1 mM MnCl2, 0.01% bovine serum albumin, 0.05% Tween 20) for 1 hour at room temperature in a siliconized polypropylene tube. Then, the selective Lck inhibitor PP2 (4-amino-5-(4-chloro-phenyl)-7-(t-butyl)pyrazolo[3,4-d]pyrimidine; Alexis Biochemicals) is added (final concentration 1.2 μM) and incubated for further 10 min. Ten μl of this solution is mixed with the 10 μl biotinylated peptide LAT-11 (linker for activation of T cell prepared as disclosed in Example 1A of WO 02/12275, the contents of which, particularly with reference to Example 1A, is incorporated herein by reference; 1 μM) as substrate and 20 μl of serial dilutions of inhibitors and incubated for 4 hours at room temperature. The kinase reaction is terminated with 10 μl of a 10 mM EDTA solution in detection buffer (20 mM Tris, pH 7.5, 0.01% bovine serum albumin, 0.05% Tween 20). The detection phase is performed by addition of 50 μl europium (Eu)-labelled anti-phosphotyrosine antibody (e.g. Eu-PT66; final concentration 0.125 nM; Advant/Wallac) and 50 μl streptavidin-allophycocyanine (SA-APC; final concentration 40 nM) in detection buffer. After 1 hour incubation at room temperature fluorescence is measured, e.g., on the Victor2 Multilabel Counter (VVallac) at 665 nm. Background values (low control) are obtained in the absence of test samples and ATP and are subtracted from all values. Signals obtained in the absence of test samples are taken as 100% (high control). The inhibition obtained in the presence of test compounds is calculated as percent inhibition of the high control. The concentration of test compounds resulting in 50% inhibition (IC50) is determined from the dose-response curves.
`CNc1cc(Nc2nccc(Nc3ccc4c(c3S(N)(=O)=O)OCCO4)n2)ccc1C` [Example 140, 6-[2-(4-Methyl-3-methylamino-phenylamino)-pyrimidin-4-ylamino]-2,3-dihydro-benzo[1,4]dioxine-5-sulfonic acid amide]: the IC50 is 10 nM.

On to `CNc1cc(Nc2nccc(Nc3cccc(OC)c3S(N)(=O)=O)n2)ccc1C` [Example 139, 2-Methoxy-6-[2-(4-methyl-3-methyl-amino-phenylamino)-pyrimidin-4-ylamino]-benzenesulfonamide], for which the IC50 was 37 nM. The figure for `CN1CCN(CCOc2cccc(Nc3nccc(Nc4ccc5c(c4S(N)(=O)=O)OCCO5)n3)c2)CC1` [Example 11] is 16 nM; for `COc1cccc(Nc2ccnc(Nc3ccc4c(c3)NCC4)n2)c1S(N)(=O)=O` [Example 141, 2-[2-(2,3-Dihydro-1H-indol-6-ylamino)-pyrimidin-4-ylamino]-6-methoxy-benzenesulfonamide] it is 183 nM.

On to `COCCNc1cc(Nc2nccc(Nc3ccc4c(c3S(N)(=O)=O)OCCO4)n2)ccc1C` [Example 57], for which the IC50 stood at 13 nM. Turning to `NS(=O)(=O)c1c(Nc2ccnc(Nc3ccc4c(c3)NCC4)n2)ccc2c1OCCO2` [Example 144, 6-[2-(2,3-Dihydro-1H-indol-6-ylamino)-pyrimidin-4-ylamino]-2,3-dihydro-benzo[1,4]dioxine-5-sulfonic acid amide], the IC50 was determined as 21 nM. Compared with the last molecule, the IC50 is about 1.6-fold higher.
